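Compound exposure: 48 hours, 5 concentrations, 96-well plates. The concentration for 50% growth inhibition is given as GI50.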 Activity calls are given as the source filed them. No stated cut-off is given here; in the data, active = GI50 up to about 1.1 µM and inactive = higher.
What was measured:
Experiment in all cases: DTP human tumour cell line panel, 48 h
786-0 = system: 786-0
A498 = system: A498
A549 = system: A549
ACHN = system: ACHN
CAKI-1 = system: CAKI-1
CCRF-CEM = system: CCRF-CEM
COLO 205 = system: COLO 205
DLD-1 = system: DLD-1
DMS-114 = system: DMS-114
EKVX = system: EKVX
HCC 2998 = system: HCC 2998
HCT-116 = system: HCT-116
HCT-15 = system: HCT-15
HOP-62 = system: HOP-62
HOP-92 = system: HOP-92
HT-29 = system: HT-29
IGROV-1 = system: IGROV-1
K562 = system: K562
KM12 = system: KM12
LOX IMVI = system: LOX IMVI
LXFL 529 = system: LXFL 529
M14 = system: M14
M19-MEL = system: M19-MEL
MOLT-4 = system: MOLT-4
Malme-3M = system: Malme-3M
NCI-H226 = system: NCI-H226
NCI-H23 = system: NCI-H23
NCI-H460 = system: NCI-H460
NCI-H522 = system: NCI-H522
OVCAR-3 = system: OVCAR-3
OVCAR-4 = system: OVCAR-4
OVCAR-5 = system: OVCAR-5
OVCAR-8 = system: OVCAR-8
RPMI-8226 = system: RPMI-8226
RXF 393 = system: RXF 393
SF-268 = system: SF-268
SF-295 = system: SF-295
SF-539 = system: SF-539
SK-MEL-28 = system: SK-MEL-28
SK-MEL-2 = system: SK-MEL-2
SK-MEL-5 = system: SK-MEL-5
SK-OV-3 = system: SK-OV-3
SN12C = system: SN12C
SNB-19 = system: SNB-19
SNB-78 = system: SNB-78
SR = system: SR
SW-620 = system: SW-620
U-251 = system: U-251
UACC-257 = system: UACC-257
UACC-62 = system: UACC-62
UO-31 = system: UO-31

For CN/N=C(\C(=O)Nc1ccc(C(F)(F)F)cc1[N+](=O)[O-])C(c1cnc2ccc([N+](=O)[O-])cc2n1)[N+](=O)[O-] (stereo unspecified), the GI50 (786-0) was 32.4 µM (inactive), the GI50 (A498) was 16.7 µM (inactive) and the GI50 (A549) was 28 µM (inactive). For the same compound, the GI50 (ACHN) was 21.8 µM (inactive), the GI50 (CAKI-1) was 14.3 µM (inactive) and the GI50 (CCRF-CEM) was 9.77 µM (inactive). For the same compound, the GI50 (COLO 205) was 28.6 µM (inactive), the GI50 (DLD-1) was > 100 µM (inactive) and the GI50 (DMS-114) was 10.4 µM (inactive). The GI50 (EKVX) was 6.71 µM (inactive), the GI50 (HCC 2998) was 49.5 µM (inactive) and the GI50 (HCT-116) was 41.4 µM (inactive). The GI50 (HCT-15) was 37.1 µM, the GI50 (HOP-62) was 33 µM (inactive) and the GI50 (HOP-92) was 64.1 µM (inactive). For the same compound, the GI50 (HT-29) was 67.1 µM (inactive), the GI50 (IGROV-1) was > 100 µM (inactive) and the GI50 (K562) was 8.79 µM (inactive). The GI50 (KM12) was 48.6 µM (inactive), the GI50 (LOX IMVI) was 12.1 µM (inactive) and the GI50 (LXFL 529) was 21.8 µM (inactive). For the same compound, the GI50 (M14) was > 100 µM (inactive), the GI50 (M19-MEL) was 10.9 µM (inactive) and the GI50 (MOLT-4) was 14.8 µM (inactive). For the same compound, the GI50 (Malme-3M) was > 100 µM (inactive), the GI50 (NCI-H226) was 17.9 µM (inactive) and the GI50 (NCI-H23) was 62.7 µM (inactive). For the same compound, the GI50 (NCI-H460) was 33.3 µM (inactive), the GI50 (NCI-H522) was 6.84 µM (inactive) and the GI50 (OVCAR-3) was 28.6 µM (inactive). The GI50 (OVCAR-4) was > 10 µM (inactive), the GI50 (OVCAR-5) was 22.9 µM (inactive) and the GI50 (OVCAR-8) was 59 µM (inactive). For the same compound, the GI50 (RPMI-8226) was 38.2 µM (inactive), the GI50 (RXF 393) was 30.1 µM (inactive) and the GI50 (SF-268) was 73.3 µM (inactive). The GI50 (SF-295) was 37.7 µM (inactive), the GI50 (SF-539) was 25.6 µM (inactive) and the GI50 (SK-MEL-28) was > 100 µM (inactive). The GI50 (SK-MEL-2) was > 100 µM (inactive), the GI50 (SK-MEL-5) was 28.1 µM (inactive) and the GI50 (SK-OV-3) was > 100 µM (inactive). For the same compound, the GI50 (SN12C) was > 100 µM (inactive), the GI50 (SNB-19) was 96.6 µM (inactive) and the GI50 (SNB-78) was 61.7 µM (inactive). The GI50 (SR) was 27.7 µM (inactive), the GI50 (SW-620) was 46 µM (inactive) and the GI50 (U-251) was 78.5 µM (inactive). For the same compound, the GI50 (UACC-257) was 44.5 µM (inactive), the GI50 (UACC-62) was > 10 µM (inactive) and the GI50 (UO-31) was 16 µM (inactive).

— ChEMBL document CHEMBL1201862, “PubChem BioAssay data set” (2004)
